# In PubChem BioAssay AID2060884 (Molecular Pharmacology Branch, DTP, NCI, 2025):
# Values joined by “and” are separate entries in the source; they are usually repeats but may differ in a detail not shown here. Identical values can stand only once.
# Tested on: NCI-H929 complex spheroids, viability % test/control
# Assay: Anticancer human tumor NCI-H929 cell line growth inhibition [RAS];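 also: compound exposure lasted seven days before viability was read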;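 as to viability, T/C: 100% = DMSO vehicle control viability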
# Conditions: for viability, T/C: stronger effect = lower value
# Procedure, shortened: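 Tumour cells grown as complex spheroids with HUVEC endothelial cells and mesenchymal stem cells, treated with RAS pathway inhibitor combinations. Each agent spans half-log steps from near clinical Cmax, or 10 microM where Cmax is unknown.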
# [1] = curve of first compound, second compound 0.000949 µM
# [2] = curve of first compound, second compound 0.003 µM
# [3] = curve of first compound, second compound 0.00949 µM
# [4] = curve of first compound, second compound 0.03 µM
# [5] = curve of first compound, second compound 0.0949 µM
# [6] = curve of first compound, second compound 0.3 µM
# [7] = second compound 0.000949 µM, first compound 0.0316 µM
# [8] = second compound 0.000949 µM, first compound 0.1 µM
# [9] = second compound 0.000949 µM, first compound 0.316 µM
# [10] = second compound 0.000949 µM, first compound 1 µM
# [11] = second compound 0.000949 µM, first compound 3.16 µM
# [12] = second compound 0.000949 µM, first compound 10 µM
# [13] = second compound 0.003 µM, first compound 0.0316 µM
# [14] = second compound 0.003 µM, first compound 0.1 µM
# [15] = second compound 0.003 µM, first compound 0.316 µM
# [16] = second compound 0.003 µM, first compound 1 µM
# [17] = second compound 0.003 µM, first compound 3.16 µM
# [18] = second compound 0.003 µM, first compound 10 µM
# [19] = second compound 0.00949 µM, first compound 0.0316 µM
# [20] = second compound 0.00949 µM, first compound 0.1 µM
# [21] = second compound 0.00949 µM, first compound 0.316 µM
# [22] = second compound 0.00949 µM, first compound 1 µM
# [23] = second compound 0.00949 µM, first compound 3.16 µM
# [24] = second compound 0.00949 µM, first compound 10 µM
# [25] = second compound 0.03 µM, first compound 0.0316 µM
# [26] = second compound 0.03 µM, first compound 0.1 µM
# [27] = second compound 0.03 µM, first compound 0.316 µM
# [28] = second compound 0.03 µM, first compound 1 µM
# [29] = second compound 0.03 µM, first compound 3.16 µM
# [30] = second compound 0.03 µM, first compound 10 µM
# [31] = second compound 0.0949 µM, first compound 0.0316 µM
# [32] = second compound 0.0949 µM, first compound 0.1 µM
# [33] = second compound 0.0949 µM, first compound 0.316 µM
# [34] = second compound 0.0949 µM, first compound 1 µM
# [35] = second compound 0.0949 µM, first compound 3.16 µM
# [36] = second compound 0.0949 µM, first compound 10 µM
# [37] = second compound 0.3 µM, first compound 0.0316 µM
# [38] = second compound 0.3 µM, first compound 0.1 µM
# [39] = second compound 0.3 µM, first compound 0.316 µM
# [40] = second compound 0.3 µM, first compound 1 µM
# [41] = second compound 0.3 µM, first compound 3.16 µM
# [42] = second compound 0.3 µM, first compound 10 µM
compound,measurement,setting,value
C[C@@H](NC(=O)c1ncnc(N)c1Cl)c1ncc(C(=O)Nc2cc(C(F)(F)F)c(Cl)cn2)s1 + CCn1c(-c2cccnc2C(C)OC)c2c3cc(ccc31)N1CCOC(CC(NC(=O)C(C(C)C)N(C)C(=O)C3(F)CCN(C(=O)C#CC(C)(C)N(C)C)CC3)C(=O)N3CCCC(N3)C(=O)OCC(C)(C)C2)C1,IC50,[1],> 10000 nM
same,IC50,[2],> 10000 nM
same,IC50,[3],> 10000 nM
same,IC50,[4],> 10000 nM
same,IC50,[5],> 10000 nM
same,IC50,[6],> 10000 nM
same,"viability, T/C",[7],109%
same,"viability, T/C",[8],101%
same,"viability, T/C",[9],105%
same,"viability, T/C",[10],94.4%
same,"viability, T/C",[11],98.9%
same,"viability, T/C",[12],103%
same,"viability, T/C",[13],103%
same,"viability, T/C",[14],107%
same,"viability, T/C",[15],99.3%
same,"viability, T/C",[16],93.1%
same,"viability, T/C",[17],100%
same,"viability, T/C",[18],104%
same,"viability, T/C",[19],99.7%
same,"viability, T/C",[20],102%
same,"viability, T/C",[21],102%
same,"viability, T/C",[22],92.3%
same,"viability, T/C",[23],102%
same,"viability, T/C",[24],104%
same,"viability, T/C",[25],98.8%
same,"viability, T/C",[26],105%
same,"viability, T/C",[27],99.1%
same,"viability, T/C",[28],92.6%
same,"viability, T/C",[29],101%
same,"viability, T/C",[30],104%
same,"viability, T/C",[31],104%
same,"viability, T/C",[32],101%
same,"viability, T/C",[33],94.8%
same,"viability, T/C",[34],92.3%
same,"viability, T/C",[35],96.2%
same,"viability, T/C",[36],105%
same,"viability, T/C",[37],106%
same,"viability, T/C",[38],105%
same,"viability, T/C",[39],102%
same,"viability, T/C",[40],87.4%
same,"viability, T/C",[41],92.5%
same,"viability, T/C",[42],107%
C=CC(=O)Nc1cc(Nc2nccc(-c3cn(C)c4ccccc34)n2)c(OC)cc1N(C)CCN(C)C + CCn1c(-c2cc(N3CCN(C)CC3)cnc2C(C)OC)c2c3cc(ccc31)-c1csc(n1)CC(NC(=O)C1CC1C)C(=O)N1CCCC(N1)C(=O)OCC(C)(C)C2,IC50,[1],> 1000 nM
same,IC50,[2],> 1000 nM
same,IC50,[3],> 1000 nM
same,IC50,[4],120 nM
same,IC50,[5],< 3.16 nM
same,IC50,[6],< 3.16 nM
same,"viability, T/C","second compound 0.000949 µM, first compound 0.00316 µM",97.3%
same,"viability, T/C","second compound 0.000949 µM, first compound 0.01 µM",95%
same,"viability, T/C",[7],103%
same,"viability, T/C",[8],94.9%
same,"viability, T/C",[9],105%
same,"viability, T/C",[10],103%
same,"viability, T/C","second compound 0.003 µM, first compound 0.00316 µM",87.2%
same,"viability, T/C","second compound 0.003 µM, first compound 0.01 µM",95.3%
same,"viability, T/C",[13],98.8%
same,"viability, T/C",[14],98.4%
same,"viability, T/C",[15],103%
same,"viability, T/C",[16],106%
same,"viability, T/C","second compound 0.00949 µM, first compound 0.00316 µM",108%
same,"viability, T/C","second compound 0.00949 µM, first compound 0.01 µM",112%
same,"viability, T/C",[19],112%
same,"viability, T/C",[20],114%
same,"viability, T/C",[21],111%
same,"viability, T/C",[22],112%
same,"viability, T/C","second compound 0.03 µM, first compound 0.00316 µM",54.3%
same,"viability, T/C","second compound 0.03 µM, first compound 0.01 µM",46.8%
same,"viability, T/C",[25],59.9%
same,"viability, T/C",[26],49.9%
same,"viability, T/C",[27],42.2%
same,"viability, T/C",[28],9.94%
same,"viability, T/C","second compound 0.0949 µM, first compound 0.00316 µM",7.68%
same,"viability, T/C","second compound 0.0949 µM, first compound 0.01 µM",6.73%
same,"viability, T/C",[31],7.23%
same,"viability, T/C",[32],6.05%
same,"viability, T/C",[33],5.18%
same,"viability, T/C",[34],1.96%
same,"viability, T/C","second compound 0.3 µM, first compound 0.00316 µM",4.84%
same,"viability, T/C","second compound 0.3 µM, first compound 0.01 µM",4.08%
same,"viability, T/C",[37],4.06%
same,"viability, T/C",[38],3.89%
same,"viability, T/C",[39],3.59%
same,"viability, T/C",[40],1.46%
C=CC(=O)Nc1cc(Nc2nccc(-c3cn(C)c4ccccc34)n2)c(OC)cc1N(C)CCN(C)C,"viability, T/C",compound 0.00316 µM,103% (2×) and 109% and 105%
same,"viability, T/C",compound 0.01 µM,99.4% [middle of 4 runs]
same,"viability, T/C",compound 0.0316 µM,107% [middle of 4 runs]
same,"viability, T/C",compound 0.1 µM,99% [middle of 4 runs]
same,"viability, T/C",compound 0.316 µM,105% [middle of 4 runs]
same,"viability, T/C",compound 1 µM,105% [middle of 4 runs]
same,IC50,curve of compound,> 1000 nM
NC1c2ccccc2OC12CCN(c1cnc3c(N4CCCc5ncccc54)n[nH]c3n1)CC2 (stereo not drawn) + CCn1c(-c2cc(N3CCN(C)CC3)cnc2C(C)OC)c2c3cc(ccc31)-c1csc(n1)CC(NC(=O)C1CC1C)C(=O)N1CCCC(N1)C(=O)OCC(C)(C)C2,IC50,[1],> 10000 nM
same,IC50,[2],> 10000 nM
same,IC50,[3],> 10000 nM
same,IC50,[4],< 31.6 nM
same,IC50,[5],< 31.6 nM
same,IC50,[6],< 31.6 nM
same,"viability, T/C",[7],107%
same,"viability, T/C",[8],104%
same,"viability, T/C",[9],108%
same,"viability, T/C",[10],108%
same,"viability, T/C",[11],113%
same,"viability, T/C",[12],78.6%
same,"viability, T/C",[13],107%
same,"viability, T/C",[14],108%
same,"viability, T/C",[15],109%
same,"viability, T/C",[16],111%
same,"viability, T/C",[17],109%
same,"viability, T/C",[18],80.9%
same,"viability, T/C",[19],121%
same,"viability, T/C",[20],128%
same,"viability, T/C",[21],128%
same,"viability, T/C",[22],125%
same,"viability, T/C",[23],121%
same,"viability, T/C",[24],87.8%
same,"viability, T/C",[25],15.4%
same,"viability, T/C",[26],13.8%
same,"viability, T/C",[27],14.9%
same,"viability, T/C",[28],12.7%
same,"viability, T/C",[29],18.3%
same,"viability, T/C",[30],12%
same,"viability, T/C",[31],3.25%
same,"viability, T/C",[32],2.4%
same,"viability, T/C",[33],2.09%
same,"viability, T/C",[34],2.07%
same,"viability, T/C",[35],1.88%
same,"viability, T/C",[36],0.76%
same,"viability, T/C",[37],1.75%
same,"viability, T/C",[38],1.24%
same,"viability, T/C",[39],0.73%
same,"viability, T/C",[40],0.89%
same,"viability, T/C",[41],1.51%
same,"viability, T/C",[42],0.19%
